Results taken from US8507536B2, “Gonadotropin-releasing hormone receptor antagonists and methods relating thereto” (Neurocrine Biosciences, Inc., priority 2007, dated 2013).

The compounds below were run against T1, human GnRH receptor (Homo sapiens, UniProt P30968) (assay: peptide competitive human receptor binding assays (radioligand displacement)). Details: tested in one or more of the peptide competitive human receptor binding assays.
T1 construct: expressed in transfected cells; membrane preparations
T1 sequence (P30968 1-328): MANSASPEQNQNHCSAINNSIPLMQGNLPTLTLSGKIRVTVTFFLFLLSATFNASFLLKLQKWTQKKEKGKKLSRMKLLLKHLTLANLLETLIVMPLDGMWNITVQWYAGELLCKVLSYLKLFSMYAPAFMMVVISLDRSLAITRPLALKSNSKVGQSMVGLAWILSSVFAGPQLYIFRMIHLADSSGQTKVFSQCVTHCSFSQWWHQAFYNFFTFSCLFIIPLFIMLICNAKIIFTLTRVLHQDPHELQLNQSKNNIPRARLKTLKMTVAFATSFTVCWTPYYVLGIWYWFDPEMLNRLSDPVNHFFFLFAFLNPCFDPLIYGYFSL
Description: HEK293 cells stably transfected with the human GnRH receptor are grown for two days after achieving confluence then are harvested by striking tissue culture flasks against a firm surface. Cells are collected by centrifugation at 1000 g for […]. Cell pellets are resuspended in 5% sucrose and homogenized using a polytron homogenizer for two 15 second homogenization steps. Cell homogenates are then centrifuged for 5 minutes at 3000 g to remove nuclei and the supernatant subsequently centrifuged for 30 minutes at 44,000 g to collect the membrane fraction. The membrane pellet is resuspended in GnRH binding buffer (10 mM HEPES, pH 7.5, 150 mM NaCl and 0.1% BSA) and aliquots immediately snap-frozen in liquid nitrogen and stored at −80° C. Protein content of the membrane suspension is determined using the Bio-Rad protein assay kit (Bio-Rad).
RBL cells stably transfected with the human GnRH receptor are grown to 80% confluency prior to harvesting. The cells are incubated at 37° C. for 10 min in 0.5 mM EDTA/PBS (Ca^++, Mg^++ free), and are dislodged from the plate by gentle rapping of the flasks. Cells are collected and pelleted by centrifugation at 1000 g for 5 minutes. Cell pellets are resuspended in buffer (DPBS supplemented with 10 mM MgCl2, 2 mM EGTA, pH=7.4), and cell lysis is performed using a pressure cell and applying N2 at a pressure of 900 psi for 30 min at 4° C. Unbroken cells and larger debris were removed by centrifugation at 1200 g for 10 min at 4° C. The cell membrane supernatant is then centrifuged at 45,000 g and the resulting membrane pellet is resuspended in assay buffer and homogenized on ice using a tissue homogenizer. Protein concentrations are determined using the Coomassie Plus Protein Reagent kit. Membranes are aliquoted and stored at −80° C. until ready for use.
Radioligand binding displacement assays using the peptide radioligands are performed in buffer containing 10 mM HEPES, 150 mM NaCl and 0.1% BSA, pH=7.5. Radioligand binding assays employing the use of [^3H]-1-(2,6-difluorobenzyl)-3-[(2R)-amino-2-phenethyl]-5-(2-fluoro-3-methoxyphenyl)-6-methyluracil (here the 3-methoxy group is tritiated) are run in buffer containing 50 mM Tris, 150 mM NaCl, 5 mM MgCl2, 0.01% saponin and 0.5 mM EDTA, pH=7.5. Radioligand displacement assays are performed by incubating radioligand ([^125I-Tyr^5, DLeu^6, NMeLeu^7, Pro^9-NEt]GnRH (0.1 nM), [His^5, ^125I-DTyr^6]GnRH (0.2 nM) (31) or [^3H]-1-(2,6-difluorobenzyl)-3-[(2R)-amino-2-phenethyl]-5-(2-fluoro-3-methoxyphenyl)-6-methyluracil (1 nM)), unlabeled competitors at concentrations ranging from 0.3 pM to 10 μM, and membranes for 2 hrs at rt. 10 to 20 μg protein/well is used from membrane preparations for human, monkey and rabbit GnRH receptor. 5 μg/well and 60 μg/well of membranes are used for rat and dog GnRH receptors, respectively. Binding assays are performed in either Millipore 96-well GF/C filtration plates (for ([^125I-Tyr^5, DLeu^6, NMeLeu^7, Pro^9-NEt]GnRH assays), or in 96 well low binding plates, which are subsequently filtered onto GF/C Unifilters. Filters are pretreated with 0.5% PEI for 30 min prior to use. Reactions are terminated by rapid vacuum filtration, and the filters are washed twice with 250 μL ice cold PBS pH=7.4 (0.01% Tween-20 is included in wash media for [His^5, ^125I-DTyr^6]GnRH and [^3H]-1-(2,6-difluorobenzyl)-3-[(2R)-amino-2-phenethyl]-5-(2-fluoro-3-methoxyphenyl)-6-methyluracil radioligands). The filters are dried, and the Millipore filters are monitored for radioactivity using a Cobra II gamma counter (Perkin Elmer Life Sciences). For assays filtered onto the GF/C Unifilter plates, 50 μL scintillation fluid is added to each filter, and radioactivity is monitored using a TopCount NXT. For iodinated radioligands, total radioligand is monitored on a gamma counter, and for the tritiated radioligand, total radioligand is monitored using a Perkin Elmer 1600TR liquid scintillation counter. […]

SMILES | Ki [nM]
CC1(C)CCN(S(=O)(=O)c2cc(-c3cnc(C(F)(F)F)cc3C#N)c(Cl)cc2OCCO)c2ccccc21 [Example 11-2, 5-[2-chloro-5-(4,4-dimethyl-3,4-dihydro-2H-quinoline-1-sulfonyl)-4-(2-hydroxy-ethoxy)-phenyl]-2-trifluoromethyl-isonicotinonitrile] | ≤ 100
CC1(C)CCN(S(=O)(=O)c2cc(-c3cnc(C(F)(F)F)cc3C#N)c(Cl)cc2OCCCO)c2ccccc21 [Example 11-3, 5-[2-chloro-5-(4,4-dimethyl-3,4-dihydro-2H-quinoline-1-sulfonyl)-4-(3-hydroxy-propoxy)-phenyl]-2-trifluoromethyl-isonicotinonitrile] | ≤ 100
CC1(C)CCN(S(=O)(=O)c2cc(-c3cnc(C(F)(F)F)cc3C#N)c(Cl)cc2OCCCC(=O)O)c2ccccc21 [Example 12-1, 4-[5-chloro-4-(4-cyano-6-trifluoromethyl-pyridin-3-yl)-2-(4,4-dimethyl-3,4-dihydro-2H-quinoline-1-sulfonyl)-phenoxy]-butyric acid] | ≤ 100
CC1(C)CCN(S(=O)(=O)c2cc(-c3cnc(C(F)(F)F)cc3C#N)c(Cl)cc2OCC(=O)O)c2ccccc21 [Example 12-2, [5-chloro-4-(4-cyano-6-trifluoromethyl-pyridin-3-yl)-2-(4,4-dimethyl-3,4-dihydro-2H-quinoline-1-sulfonyl)-phenoxy]-acetic acid] | ≤ 100
CC1(C)CCN(S(=O)(=O)c2cc(-c3cnc(C(F)(F)F)cc3C#N)c(Cl)cc2OCCC(=O)O)c2ccccc21 [Example 12-3, 3-[5-chloro-4-(4-cyano-6-trifluoromethyl-pyridin-3-yl)-2-(4,4-dimethyl-3,4-dihydro-2H-quinoline-1-sulfonyl)-phenoxy]-propionic acid] | ≤ 100
Cc1cc(C(F)(F)F)nc(=O)n1-c1cc(S(=O)(=O)N2CCCCc3ccccc32)ccc1Cl [Example 13-1, 1-[2-chloro-5-(2,3,4,5-tetrahydro-benzo[b]azepine-1-sulfonyl)-phenyl]-6-methyl-4-trifluoromethyl-1H-pyrimidin-2-one] | ≤ 100
COc1cc(Cl)c(-c2cnc(C(F)(F)F)cc2C#N)cc1S(=O)(=O)N(C)c1ccccc1 [Example 15-1, 4-chloro-5-(4-cyano-6-trifluoromethyl-pyridin-3-yl)-2-methoxy-N-methyl-N-phenyl-benzenesulfonamide] | ≤ 100
COc1cc(Cl)c(-c2cnc(C(F)(F)F)cc2C#N)cc1S(=O)(=O)N1CCC(C)(C)c2ccccc21 [Example 15-2] | ≤ 100
COc1cc(Cl)c(-c2cnc(C(F)(F)F)cc2C#N)cc1S(=O)(=O)N(C)c1cccc(Cl)c1 [Example 15-3] | ≤ 100
COc1cc(Cl)c(-c2cnc(C(F)(F)F)cc2C#N)cc1S(=O)(=O)N(C)c1ccccc1C [Example 15-5] | ≤ 100
COc1cc(Cl)c(-c2cnc(C(F)(F)F)cc2C#N)cc1S(=O)(=O)N(C)c1ccc(F)cc1 [Example 15-6] | ≤ 100
COc1cc(Cl)c(-c2cnc(C(F)(F)F)cc2C#N)cc1S(=O)(=O)N(C)c1ccc(Cl)c(Cl)c1 [Example 15-8] | ≤ 100
COc1cc(Cl)c(-c2cnc(C(F)(F)F)cc2C#N)cc1S(=O)(=O)N(C)c1cccc(C)c1 [Example 15-9] | ≤ 100
COc1cc(Cl)c(-c2cnc(C(F)(F)F)cc2C#N)cc1S(=O)(=O)N(C)c1ccc(Cl)cc1 [Example 15-10] | ≤ 100
COc1cc(Cl)c(-c2cnc(C(F)(F)F)cc2C#N)cc1S(=O)(=O)N(C)c1cccc(F)c1 [Example 15-11] | ≤ 100
COc1cc(Cl)c(-c2cnc(C(F)(F)F)cc2C#N)cc1S(=O)(=O)N(C)c1ccccc1F [Example 15-12] | ≤ 100
COc1cccc(N(C)S(=O)(=O)c2cc(-c3cnc(C(F)(F)F)cc3C#N)c(Cl)cc2OC)c1 [Example 15-14] | ≤ 100
COc1cc(Cl)c(-c2cnc(C(F)(F)F)cc2C#N)cc1S(=O)(=O)N(C)c1c(C)cccc1OC [Example 15-15] | ≤ 100
COc1ccccc1N(C)S(=O)(=O)c1cc(-c2cnc(C(F)(F)F)cc2C#N)c(Cl)cc1OC [Example 15-16] | ≤ 100

SMILES | Ki [nM]
COc1cc(Cl)c(-c2cnc(C(F)(F)F)cc2C#N)cc1S(=O)(=O)N1CCCCc2ccccc21 [Example 15-17] | ≤ 100
COc1cc(Cl)c(-c2cnc(C(F)(F)F)cc2C#N)cc1S(=O)(=O)N(C)c1ccccn1 [Example 15-18] | ≤ 100
COc1cc(Cl)c(-c2cnc(C(F)(F)F)cc2C#N)cc1S(=O)(=O)N(C)c1ncccc1C [Example 15-19] | ≤ 100
COc1cccc(N(C)S(=O)(=O)c2cc(-c3cnc(C(F)(F)F)cc3C#N)c(Cl)cc2OC)n1 [Example 15-20] | ≤ 100
COc1cc(Cl)c(-c2cnc(C(F)(F)F)cc2C#N)cc1S(=O)(=O)N(C)CC(C)C [Example 15-21] | ≤ 100
CCOC(=O)CN(C)S(=O)(=O)c1cc(-c2cnc(C(F)(F)F)cc2C#N)c(Cl)cc1OC [Example 15-26] | ≤ 100
CCCCNS(=O)(=O)c1cc(-c2cnc(C(F)(F)F)cc2C#N)c(Cl)cc1OC [Example 15-28] | ≤ 100
COc1ccccc1CN(C)S(=O)(=O)c1cc(-c2cnc(C(F)(F)F)cc2C#N)c(Cl)cc1OC [Example 15-29] | ≤ 100
COc1cc(Cl)c(-c2cnc(C(F)(F)F)cc2C#N)cc1S(=O)(=O)N(C)CC(C)(C)C [Example 15-30] | ≤ 100
COc1cccc(CN(C)S(=O)(=O)c2cc(-c3cnc(C(F)(F)F)cc3C#N)c(Cl)cc2OC)c1 [Example 15-32] | ≤ 100
COc1cc(Cl)c(-c2cnc(C(F)(F)F)cc2C#N)cc1S(=O)(=O)N(C)Cc1ccc(F)cc1 [Example 15-33] | ≤ 100
COc1cc(Cl)c(-c2cnc(C(F)(F)F)cc2C#N)cc1S(=O)(=O)N(C)Cc1cccc(F)c1 [Example 15-34] | ≤ 100
COc1cc(Cl)c(-c2cnc(C(F)(F)F)cc2C#N)cc1S(=O)(=O)N(C)Cc1ccccc1F [Example 15-35] | ≤ 100
COc1cc(Cl)c(-c2cnc(C(F)(F)F)cc2C#N)cc1S(=O)(=O)N(C)Cc1cccc(C)n1 [Example 15-38] | ≤ 100
COc1cc(Cl)c(-c2cnc(C(F)(F)F)cc2C#N)cc1S(=O)(=O)N(C)Cc1ccco1 [Example 15-39] | ≤ 100
COc1cc(Cl)c(-c2cnc(C(F)(F)F)cc2C#N)cc1S(=O)(=O)N(C)[C@H](C)c1ccccc1 [Example 15-43] | ≤ 100
COc1cc(Cl)c(-c2cnc(C(F)(F)F)cc2C#N)cc1S(=O)(=O)N(C)[C@@H](C)c1ccccc1 [Example 15-44] | ≤ 100
COC(=O)Cc1cc(Cl)c(-c2cnc(C(F)(F)F)cc2C#N)cc1S(=O)(=O)N1CCC(C)(C)c2ccccc21 [Example 16-1, [5-Chloro-4-(4-cyano-6-trifluoromethyl-pyridin-3-yl)-2-(4,4-dimethyl-3,4-dihydro-2H-quinoline-1-sulfonyl)-phenyl]-acetic acid methyl ester] | ≤ 100
